Reference: patent US20150190410A1, “USE OF CREATINE AND PHOSPHOCREATINE IN THE TREATMENT OF EPILEPSY AND ALCOHOL ADDICTION” (Dignity Health, priority 2012, published 2015)
Where “and” joins values, the source holds several entries; their conditions need not be identical. Equal entries are not always repeated.

Assays:
[1] = tested on: GABAA receptor expressing cells; assay: Co-application with ethanol on GABAA receptor expressing cells; assay type: cell-based; settings: depends on concentration relative to ethanol
From the text: Thus, in one embodiment, creatine, phosphocreatine and their analogs can be used to prevent and/or provide protection against alcohol addiction.
Alcoholism is a serious problem both to the individual, the individual's family, and society. Currently there is no compound that can effectively prevent alcoholism. Alcohol (Ethanol) acts as a positive allosteric modulator of extrasynaptic GABAA receptors. […] Thus creatine, phosphocreatine and their analogs may be used to prevent and/or provide protection against alcohol addiction.

[2] = tested on: extra-synaptic GABAA receptors; assay: Allosteric modulation of extra-synaptic GABAA receptors (expression cells; whole cell patch clamp); assay type: cell-based
From the text: FIG. 3 depicts, in accordance with an embodiment herein, utilizing whole cell patch clamp on primary cultured neuron (rat cortex) to confirm creatine's effect on extra-synaptic GABAA receptors.

[3] = tested on: atypical absence epilepsy rodent models; assay: AY9944 atypical absence epilepsy rodent model: seizure number and seizure time under creatine; assay type: in vivo, rat; settings: for Seizure # Between 13:00:00 to 15:00:00: twice daily injection of creatine at 30 mg/kg, individual epileptic animals
Procedure: • Induced via administering the cholesterol inhibitor AY9944 during postnatal developing period P2 to P21. • Epileptic seizure is chronic, resembling all the symptoms of atypical absence epilepsy • Failure to show ictal immobility • Slow spike-wave discharges • Cognitive impairments • Counterintuitive with application of GABA Positive allosteric modulators and Agonists. • Greater seizure susceptibility in female than male.
11 epileptic animals were treated initially with saline to establish base line (day 0), then treated with twice daily injection of creatine at 30 mg/kg (days 1-5). […] Specifically, the inventors performed the following: • Day 0—Control (saline injection) • Injection of creatine between days 1-5—twice daily injection of 30 mg/kg of creatine • Day #2 (30 mg/kg creatine) • Day #5 (30 mg/kg creatine)

[4] = tested on: atypical absence epilepsy rodent models; assay: as above; assay type: in vivo, rat
[5] = Day 2 vs Day 0 saline control, 30 mg/kg twice daily, individual animals, 30 mg/kg
[6] = Day 5 vs Day 0 saline control, 30 mg/kg twice daily, individual animals, 30 mg/kg
[7] = average of 11 animals, Day 2, 30 mg/kg twice daily
[8] = average of 11 animals, Day 5, 30 mg/kg twice daily

Structure (SMILES) | effect on the GABAA receptor positive allosteric modulator effect of alcohol (ethanol) [1] | effect on expression cells compared with creatine ([2]; expression cells) | therapeutic effect compared with creatine ([3]; atypical absence epilepsy rodent models) | duration of effect of a single dose compared to current antiepileptic drugs [4] | mode of action on extra-synaptic GABAA receptors [2] | Seizure # Between 13:00:00 to 15:00:00 ([3]; Day 2, 30 mg/kg) | % Seizure # Reduction, Day #2 Post Creatine/Control [3, 5] | % Total Seizure Time Reduction, Day #2 Post Creatine/Control [3, 5] | Seizure # Between 13:00:00 to 15:00:00 ([3]; Day 5, 30 mg/kg) | % Seizure # Reduction, Day #5 Post Creatine/Control [3, 6] | % Total Seizure Time Reduction, Day #5 Post Creatine/Control [3, 6] | % Seizure # Reduction, Day #2 Post Creatine/Control, Average [3, 7] | % Total Seizure Time Reduction, Day #2 Post Creatine/Control, Average [3, 7] | % Seizure # Reduction, Day #5 Post Creatine/Control, Average [3, 8] | % Total Seizure Time Reduction, Day #5 Post Creatine/Control, Average [3, 8] | reduction in duration of epileptic seizure events ([3]; epileptic rodent model) | reduction in frequency of epileptic seizure events ([3]; epileptic rodent model)
CN(CC(=O)O)C(=N)NP(=O)(O)O [phosphocreatine] | preventing or significantly diminishing | same effect as creatine |  |  |  |  |  |  |  |  |  |  |  |  |  |  | 
NC1=NCCN1CC(=O)O [cyclocreatine] |  |  | does not confer the same therapeutic effect as creatine |  |  |  |  |  |  |  |  |  |  |  |  |  | 
CN(CC(=O)O)C(=N)N [creatine] | preventing or significantly diminishing |  |  | last much longer than conventional antiepileptic drugs | partial negative allosteric modulator | 2 and 17 (2×) and 14 and 7 and 31 and 25 and 16 and 20 and 4 and 15 | 28.57% and 91.30% and 63.04% and 56.25% and 12.50% and 27.91% and 30.56% and 44.83% and 25.93% and 69.23% and 26.09% | 63.25% and 80.95% and 92.74% and 82.31% and 52.13% and 40.86% and 76.08% and 73.42% and 89.95% and 85.75% and 74.05% | 5 (2×) and 21 and 18 and 4 and 26 and 23 and 13 and 16 and 10 and 15 | 76.19% and 78.26% and 54.35% and 43.75% and 50.00% and 39.53% and 36.11% and 55.17% and 40.74% and 23.08% and 34.78% | 86.37% and 70.56% and 58.23% and 70.52% and 46.23% and 35.72% and 80.58% and 85.99% and 92.36% and 36.75% and 74.61% | 43.29% | 73.77% | 48.36% | 67.08% | greater than 70% | greater than 70%
